Where two headings read alike, the source gives them in different places.

Data set [1] in a line: Excipient compatibility with Duro-Tak 87-900A adhesive. It counts as physicochemical. Particulars: ropivacaine 4% (w/w) and excipient 5% (w/w) in Duro-Tak 87-900A; miscible, no precipitate after 72 hours. The method, then:
(§1) Further excipients were assessed for ropivacaine solubility and compatibility with Duro-Tak® adhesive 87-900A. Adhesive compatibility was assessed by mixing ropivacaine (4% (w/w)) and excipient (5% (w/w)) with Duro-Tak® 87-900A.

Data set [2] can be described thus: Approximate ropivacaine solubility in excipients, assessed visually. Format: physicochemical. The method, then:
Approximate solubilities were assessed visually by gradual addition of ropivacaine to a known volume of excipient at room temperature until saturation was observed.
as §1

The conditions of data set [3]: local anaesthetic during cataract surgery, cited from earlier work.
[4] abbreviates: solubility of ropivacaine in the named excipient, gradual addition at room temperature, visual.

Take sorbitan trioleate [Span 85]: the “900A Compatible” value in data set [1] is on record as “yes”.
Turning to `CCOCCOCCO` [Transcutol P, ethoxy diglycol], the “% Solubility (ropivacaine in candidate excipient)” value (“% Solubility” for short) in data set [2] (setting [4]) is recorded as 4.1-4.6 % w/v. The “900A Compatible” value in data set [1] is “yes”.
For the molecule `CCCCCCCC/C=C\CCCCCCCC(=O)OCC(O)CO` (stereo not shown) [Capmul-GMO-50, glycerol monooleate], the “900A Compatible” value in data set [1] was “no”.
As for “apricot kernel oil PEG-6 esters [Labrafil M 1944 CS]”, the “% Solubility” value in data set [2] is 1.2-2.1 % w/v.
On to sorbitan monooleate [Span 80], for which the “900A Compatible” value in data set [1] is listed as “no”.
For `CCCN1CCCC[C@H]1C(=O)Nc1c(C)cccc1C` [ropivacaine, (2S)—N-(2,6-dimethylphenyl)-1-propyl-2-piperidinecarboxamide], the “potency relative to lidocaine” value in data set [3] (dose-for-dose) is on record as “as much as four times as potent as lidocaine”. For the same molecule, in data set [3], the “half life relative to lidocaine” value is on record as “longer half life”.
Regarding “propylene glycol dicaprylate/dicaprate [Labrafac PG]”, the “% Solubility” value in data set [2] was 1.3-1.8 % w/v.
For `CO[C@H]1CO[C@H]2[C@@H]1OC[C@H]2OC` [DMI, dimethylisosorbide], in data set [2] (setting [4]), the “% Solubility” value is 2.8-3.6 % w/v.

Values taken from patent US10166199B2, “Transdermal patch comprising a ropivacaine formulation” (BUZZZ PHARMACEUTICALS LIMITED, priority 2013, dated 2019).
